Experimental data: US9598420B2, “Benzodiazepine bromodomain inhibitor” (GlaxoSmithKline LLC, priority 2009, dated 2017)
Structures can show the parent of a compound that is named as a salt.

tested on: LPS induced IL-6 secretion from whole blood; assay: Measurement of LPS Induced IL-6 Secretion from Whole Blood; assay type: cell-based; details: LPS 200 ng/ml, 24 hours, immunoassay, read-out: pIC50 (IL-6 levels) (converted)
Method: Activation of monocytic cells by agonists of toll-like receptors such as bacterial lipopolysaccharide (LPS) results in production of key inflammatory mediators including IL-6. Such pathways are widely considered to be central to the pathophysiology of a range of auto-immune and inflammatory disorders.
After further incubation for 24 hours at 37 degrees, 140 ul of PBS are added to each well. The plates are sealed, shaken for 10 minutes and then centrifuged (2500 rpm×10 min). 100 ul of the supernatant are removed and IL-6 levels assayed by immunoassay (typically by MesoScale Discovery technology) either immediately or following storage at −20 degrees.

Row | SMILES | IC50 [µM]
1 | COc1ccc2c(c1)C(c1ccc(Cl)cc1)=N[C@@H](CC(=O)Nc1ccccc1F)c1nnc(C)n1-2 [Example 9, 2-[(4S)-6-(4-chlorophenyl)-1-methyl-8-(methyloxy)-4H-[1,2,4]triazolo[4,3-a][1,4]benzodiazepin-4-yl]-N-(2-fluorophenyl)acetamide] | ≤ 10
2 | COc1ccc2c(c1)C(c1ccc(Cl)cc1)=N[C@@H](CC(=O)Nc1cccc(F)c1)c1nnc(C)n1-2 [Example 10, 2-[(4S)-6-(4-chlorophenyl)-1-methyl-8-(methyloxy)-4H-[1,2,4]triazolo[4,3-a][1,4]benzodiazepin-4-yl]-N-(3-fluorophenyl)acetamide] | ≤ 10
3 | COc1ccc2c(c1)C(c1ccc(Cl)cc1)=N[C@@H](CC(=O)Nc1nccs1)c1nnc(C)n1-2 [Example 15, 2-[(4S)-6-(4-chlorophenyl)-1-methyl-8-(methyloxy)-4H-[1,2,4]triazolo[4,3-a][1,4]benzodiazepin-4-yl]-N-1,3-thiazol-2-ylacetamide] | ≤ 10
4 | COc1ccc2c(c1)C(c1ccc(Cl)cc1)=N[C@@H](CC(=O)NCCCN(C)C)c1nnc(C)n1-2 [Example 51, 2-[(4S)-6-(4-chlorophenyl)-1-methyl-8-(methyloxy)-4H-[1,2,4]triazolo[4,3-a][1,4]benzodiazepin-4-yl]-N-[3-(dimethylamino)propyl]acetamide formic acid salt] | ≤ 10
5 | COc1ccc2c(c1)C(c1ccc(Cl)cc1)=N[C@@H](CC(=O)Nc1ccncn1)c1nnc(C)n1-2 [Example 54, 2-[(4S)-6-(4-chlorophenyl)-1-methyl-8-(methyloxy)-4H-[1,2,4]triazolo[4,3-a][1,4]benzodiazepin-4-yl]-N-4-pyrimidinylacetamide] | ≤ 10
6 | COc1ccc2c(c1)C(c1ccc(Cl)cc1)=N[C@@H](CC(=O)Nc1cc(C)on1)c1nnc(C)n1-2 [Example 55, 2-[(4S)-6-(4-chlorophenyl)-1-methyl-8-(methyloxy)-4H-[1,2,4]triazolo[4,3-a][1,4]benzodiazepin-4-yl]-N-(5-methyl-3-isoxazolyl)acetamide] | ≤ 10
7 | COc1ccc2c(c1)C(c1ccc(Cl)cc1)=N[C@@H](CC(=O)NC1CCOCC1)c1nnc(C)n1-2 [Example 56, 2-[(4S)-6-(4-chlorophenyl)-1-methyl-8-(methyloxy)-4H-[1,2,4]triazolo[4,3-a][1,4]benzodiazepin-4-yl]-N-(tetrahydro-2H-pyran-4-yl)acetamide] | ≤ 10
8 | COc1ccc(COC(=O)C[C@@H]2N=C(c3ccc(Cl)cc3)c3cc(OC)ccc3-n3c(C)nnc32)cc1 [Example 58] | ≤ 10
9 | COc1ccc2c(c1)C(c1ccc(Cl)cc1)=N[C@@H](CC(=O)OCC(C)C)c1nnc(C)n1-2 [Example 59] | ≤ 10
10 | COc1ccc2c(c1)C(c1ccc(Cl)cc1)=N[C@@H](CC(=O)OC1CCOCC1)c1nnc(C)n1-2 [Example 60] | ≤ 10
11 | COc1ccc2c(c1)C(c1ccc(Cl)cc1)=NC(CC(=O)Nc1ccncc1)c1nnc(C)n1-2 (stereo not shown) [Example 61] | ≤ 10
12 | COc1ccc2c(c1)C(c1ccc(Cl)cc1)=NC(CC(=O)NCC1CC1)c1nnc(C)n1-2 (stereo not shown) [Example 62] | ≤ 10
13 | Cc1nnc2n1-c1ccccc1C(c1ccc(Cl)cc1)=NC2CC(=O)Nc1ccncc1 (stereo not shown) [Example 63] | ≤ 10
14 | COc1ccc2c(c1)C(c1ccc(Cl)cc1)=NC(CC(=O)Nc1nccs1)c1nnc(C)n1-2 (stereo not shown) [Example 64] | ≤ 10
15 | COc1ccc2c(c1)C(c1ccc(Cl)cc1)=NC(CC(=O)Nc1ccc(F)cc1)c1nnc(C)n1-2 (stereo not shown) [Example 67] | ≤ 10
16 | CCNC(=O)C[C@@H]1N=C(c2ccc(Cl)cc2)c2ccc(OC)cc2-n2c(C)nnc21 [Example 69] | ≤ 10

tested on: not given; assay: not given; details: not given

Row | SMILES | melting point
17 | Cc1nnc2n1-c1ccc(O)cc1C(c1ccc(Cl)cc1)=N[C@H]2CC(=O)Nc1ccc(F)cc1 | 222 °C (dec.)
18 | COc1ccc2c(c1)C(c1ccc(Cl)cc1)=N[C@@H](CC(=O)NC1CCCCC1)c1nnc(C)n1-2 (stereo in doubt) | > 260 °C
19 | COc1ccc2c(c1)C(c1ccc(Cl)cc1)=N[C@@H](CC(=O)Nc1ccccc1F)c1nnc(C)n1-2 [Example 9, 2-[(4S)-6-(4-chlorophenyl)-1-methyl-8-(methyloxy)-4H-[1,2,4]triazolo[4,3-a][1,4]benzodiazepin-4-yl]-N-(2-fluorophenyl)acetamide] | 264 °C
20 | COc1ccc2c(c1)C(c1ccc(Cl)cc1)=N[C@@H](CC(=O)Nc1cccc(F)c1)c1nnc(C)n1-2 [Example 10, 2-[(4S)-6-(4-chlorophenyl)-1-methyl-8-(methyloxy)-4H-[1,2,4]triazolo[4,3-a][1,4]benzodiazepin-4-yl]-N-(3-fluorophenyl)acetamide] | 248 °C
21 | COc1ccc2c(c1)C(c1ccc(Cl)cc1)=N[C@@H](CC(=O)Nc1ccncc1)c1nnc(C)n1-2 [Example 14, 2-[(4S)-6-(4-chlorophenyl)-1-methyl-8-(methyloxy)-4H-[1,2,4]triazolo[4,3-a][1,4]benzodiazepin-4-yl]-N-4-pyridinylacetamide] | 223 °C
22 | COc1ccc2c(c1)C(c1ccc(Cl)cc1)=N[C@@H](CC(=O)Nc1nccs1)c1nnc(C)n1-2 [Example 15, 2-[(4S)-6-(4-chlorophenyl)-1-methyl-8-(methyloxy)-4H-[1,2,4]triazolo[4,3-a][1,4]benzodiazepin-4-yl]-N-1,3-thiazol-2-ylacetamide] | 249 °C
